Measurements reported in the NIST ThermoML archive (doi:10.1021/je400056z).

Assay: xn = mol fraction of the nth substance listed
Settings: Liquid, Vibrating tube method

CCCCCCCCCCCCC [tridecane] + O=C=O
Settings	mass density [kg/m3]
333.3 K, 17000 kPa, x2 = 0.2526	746.5
333.3 K, 18000 kPa, x2 = 0.0955	743.9
333.3 K, 18000 kPa, x2 = 0.2526	747.3
333.3 K, 19000 kPa, x2 = 0.0955	744.6
333.3 K, 19000 kPa, x2 = 0.2526	748.1
333.3 K, 20000 kPa, x2 = 0.0955	745.3
333.3 K, 20000 kPa, x2 = 0.2526	748.9
333.3 K, 21000 kPa, x2 = 0.0955	746.1
333.3 K, 21000 kPa, x2 = 0.2526	749.7
333.3 K, 22000 kPa, x2 = 0.0955	746.7
333.3 K, 22000 kPa, x2 = 0.2526	750.5
333.3 K, 23000 kPa, x2 = 0.0955	747.4
333.3 K, 23000 kPa, x2 = 0.2526	751.2
333.3 K, 24000 kPa, x2 = 0.0955	748.1
333.3 K, 24000 kPa, x2 = 0.2526	751.9
333.3 K, 25000 kPa, x2 = 0.0955	748.7
333.3 K, 25000 kPa, x2 = 0.2526	752.6
343.02 K, 8000 kPa, x2 = 0.5259	739.5
343.02 K, 9000 kPa, x2 = 0.5259	740.9
343.02 K, 10000 kPa, x2 = 0.5259	742.3
343.02 K, 11000 kPa, x2 = 0.5259	743.7
343.02 K, 12000 kPa, x2 = 0.5259	745.1
343.02 K, 13000 kPa, x2 = 0.5259	746.4
343.02 K, 14000 kPa, x2 = 0.5259	747.6
343.02 K, 15000 kPa, x2 = 0.5259	748.9
343.02 K, 16000 kPa, x2 = 0.5259	750.1
343.02 K, 17000 kPa, x2 = 0.5259	751.3
343.02 K, 18000 kPa, x2 = 0.5259	752.5
343.02 K, 19000 kPa, x2 = 0.5259	753.7
343.02 K, 20000 kPa, x2 = 0.5259	754.8
343.02 K, 21000 kPa, x2 = 0.5259	755.9
343.02 K, 22000 kPa, x2 = 0.5259	757
343.02 K, 23000 kPa, x2 = 0.5259	758.1
343.02 K, 24000 kPa, x2 = 0.5259	759.2
343.02 K, 25000 kPa, x2 = 0.5259	760.2
343.13 K, 15000 kPa, x2 = 0.8978	710.8
343.13 K, 16000 kPa, x2 = 0.8978	723.5
343.13 K, 17000 kPa, x2 = 0.8978	733.2
343.13 K, 18000 kPa, x2 = 0.8978	741.1
343.13 K, 19000 kPa, x2 = 0.8978	748
343.13 K, 20000 kPa, x2 = 0.8978	755
343.13 K, 21000 kPa, x2 = 0.8978	761.4
343.13 K, 22000 kPa, x2 = 0.8978	767.3
343.13 K, 23000 kPa, x2 = 0.8978	772.8
343.13 K, 24000 kPa, x2 = 0.8978	778
343.13 K, 25000 kPa, x2 = 0.8978	782.8
343.14 K, 9000 kPa, x2 = 0.0955	729.8
343.14 K, 9000 kPa, x2 = 0.2526	732.2
343.14 K, 10000 kPa, x2 = 0.0955	730.6
343.14 K, 10000 kPa, x2 = 0.2526	733.2
343.14 K, 11000 kPa, x2 = 0.0955	731.5
343.14 K, 11000 kPa, x2 = 0.2526	734.1
343.14 K, 12000 kPa, x2 = 0.0955	732.4
343.14 K, 12000 kPa, x2 = 0.2526	735
343.14 K, 13000 kPa, x2 = 0.0955	733.2
343.14 K, 13000 kPa, x2 = 0.2526	736
343.14 K, 14000 kPa, x2 = 0.0955	734.1
343.14 K, 14000 kPa, x2 = 0.2526	736.9
343.14 K, 15000 kPa, x2 = 0.0955	734.9
343.14 K, 15000 kPa, x2 = 0.2526	737.8
343.14 K, 16000 kPa, x2 = 0.0955	735.7
343.14 K, 16000 kPa, x2 = 0.2526	738.6
343.14 K, 17000 kPa, x2 = 0.0955	736.5
343.14 K, 17000 kPa, x2 = 0.2526	739.5
343.14 K, 18000 kPa, x2 = 0.0955	737.3
343.14 K, 18000 kPa, x2 = 0.2526	740.4
343.14 K, 19000 kPa, x2 = 0.0955	738.1
343.14 K, 19000 kPa, x2 = 0.2526	741.2
343.14 K, 20000 kPa, x2 = 0.0955	738.9
343.14 K, 20000 kPa, x2 = 0.2526	742
343.14 K, 21000 kPa, x2 = 0.0955	739.6
343.14 K, 21000 kPa, x2 = 0.2526	742.8
343.14 K, 22000 kPa, x2 = 0.0955	740.4
343.14 K, 22000 kPa, x2 = 0.2526	743.6
343.14 K, 23000 kPa, x2 = 0.0955	741.1
343.14 K, 23000 kPa, x2 = 0.2526	744.4
343.14 K, 24000 kPa, x2 = 0.0955	741.8
343.14 K, 24000 kPa, x2 = 0.2526	745.1
343.14 K, 25000 kPa, x2 = 0.0955	742.5
343.14 K, 25000 kPa, x2 = 0.2526	745.9
343.32 K, 14000 kPa, x2 = 0.7549	752.1
343.32 K, 15000 kPa, x2 = 0.7549	755.2
343.32 K, 16000 kPa, x2 = 0.7549	758
343.32 K, 17000 kPa, x2 = 0.7549	760.9
343.32 K, 18000 kPa, x2 = 0.7549	763.8
343.32 K, 19000 kPa, x2 = 0.7549	766.7
343.32 K, 20000 kPa, x2 = 0.7549	769.6
343.32 K, 21000 kPa, x2 = 0.7549	772.4
343.32 K, 22000 kPa, x2 = 0.7549	775.2
343.32 K, 23000 kPa, x2 = 0.7549	777.9
343.32 K, 24000 kPa, x2 = 0.7549	780.7
343.32 K, 25000 kPa, x2 = 0.7549	783.5
353.12 K, 9000 kPa, x2 = 0.0955	722.6
353.12 K, 9000 kPa, x2 = 0.2526	724.8
353.12 K, 10000 kPa, x2 = 0.0955	723.6
353.12 K, 10000 kPa, x2 = 0.2526	725.8
353.12 K, 11000 kPa, x2 = 0.0955	724.5
353.12 K, 11000 kPa, x2 = 0.2526	726.8
353.12 K, 12000 kPa, x2 = 0.0955	725.4
353.12 K, 12000 kPa, x2 = 0.2526	727.8
353.12 K, 13000 kPa, x2 = 0.0955	726.3
353.12 K, 13000 kPa, x2 = 0.2526	728.8
353.12 K, 14000 kPa, x2 = 0.0955	727.2
353.12 K, 14000 kPa, x2 = 0.2526	729.7
353.12 K, 15000 kPa, x2 = 0.0955	728.1
353.12 K, 15000 kPa, x2 = 0.2526	730.7
353.12 K, 16000 kPa, x2 = 0.0955	729
353.12 K, 16000 kPa, x2 = 0.2526	731.6
353.12 K, 17000 kPa, x2 = 0.0955	729.9
353.12 K, 17000 kPa, x2 = 0.2526	732.5
353.12 K, 18000 kPa, x2 = 0.0955	730.7
353.12 K, 18000 kPa, x2 = 0.2526	733.4
353.12 K, 19000 kPa, x2 = 0.0955	731.5
353.12 K, 19000 kPa, x2 = 0.2526	734.3
